The target of one test is α9α10 nAChR (Rattus norvegicus, UniProt P43144+Q9JLB5). It is filed as cell-based.
The next test addresses α1β1δε nAChR (muscle) (Homo sapiens, UniProt P02708+P11230+Q04844+Q07001). It is filed as cell-based.
The subject of test [1] is CCI-induced mechanical hypersensitivity. Details: species or system male Sprague-Dawley rats. The following applies: rat, in vivo.

The source of these data is patent publication US9717775B2 (priority 2006, dated 2017).

Chain of α1β1δε nAChR (muscle) (P02708 21-457 limits assumed): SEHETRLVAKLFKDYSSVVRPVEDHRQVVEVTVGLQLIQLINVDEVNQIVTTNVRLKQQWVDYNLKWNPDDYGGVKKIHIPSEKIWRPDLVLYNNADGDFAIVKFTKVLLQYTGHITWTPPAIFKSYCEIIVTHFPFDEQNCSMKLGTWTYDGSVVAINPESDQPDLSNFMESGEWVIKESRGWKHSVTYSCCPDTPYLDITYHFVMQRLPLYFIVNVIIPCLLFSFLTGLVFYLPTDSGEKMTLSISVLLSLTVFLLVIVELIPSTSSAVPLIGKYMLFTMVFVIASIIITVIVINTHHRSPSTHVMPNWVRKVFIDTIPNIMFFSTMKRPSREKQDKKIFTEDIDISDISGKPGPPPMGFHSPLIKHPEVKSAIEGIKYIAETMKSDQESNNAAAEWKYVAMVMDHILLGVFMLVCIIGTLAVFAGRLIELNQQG
Chain of α1β1δε nAChR (muscle) (P11230 24-501 limits assumed): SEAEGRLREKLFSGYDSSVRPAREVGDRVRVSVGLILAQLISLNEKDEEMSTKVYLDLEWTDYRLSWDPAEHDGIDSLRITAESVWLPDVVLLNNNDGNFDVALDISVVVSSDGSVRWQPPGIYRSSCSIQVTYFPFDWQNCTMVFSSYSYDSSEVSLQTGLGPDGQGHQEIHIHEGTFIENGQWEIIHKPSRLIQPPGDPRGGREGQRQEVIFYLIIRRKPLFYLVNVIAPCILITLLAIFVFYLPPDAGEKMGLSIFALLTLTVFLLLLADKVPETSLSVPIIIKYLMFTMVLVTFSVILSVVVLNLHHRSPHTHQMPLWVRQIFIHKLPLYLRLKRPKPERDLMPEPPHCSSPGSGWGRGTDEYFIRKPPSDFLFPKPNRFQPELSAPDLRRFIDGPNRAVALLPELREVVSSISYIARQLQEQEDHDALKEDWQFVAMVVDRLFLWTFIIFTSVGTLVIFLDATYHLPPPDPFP
Chain of α1β1δε nAChR (muscle) (Q07001 22-517 limits assumed): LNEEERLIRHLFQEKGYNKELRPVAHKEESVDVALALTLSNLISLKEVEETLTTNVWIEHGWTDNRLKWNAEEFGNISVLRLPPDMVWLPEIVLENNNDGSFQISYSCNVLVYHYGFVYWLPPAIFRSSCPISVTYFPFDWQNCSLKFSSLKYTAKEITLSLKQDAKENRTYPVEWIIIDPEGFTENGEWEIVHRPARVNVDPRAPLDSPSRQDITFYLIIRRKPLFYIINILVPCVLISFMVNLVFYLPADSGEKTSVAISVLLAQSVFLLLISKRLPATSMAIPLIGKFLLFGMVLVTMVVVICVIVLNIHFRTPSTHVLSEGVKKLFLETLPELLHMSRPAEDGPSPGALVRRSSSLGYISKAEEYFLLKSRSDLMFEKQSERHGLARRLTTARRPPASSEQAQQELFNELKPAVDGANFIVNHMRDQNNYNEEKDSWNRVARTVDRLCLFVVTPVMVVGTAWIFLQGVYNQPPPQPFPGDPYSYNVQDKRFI
Chain of α1β1δε nAChR (muscle) (Q04844 21-493 limits assumed): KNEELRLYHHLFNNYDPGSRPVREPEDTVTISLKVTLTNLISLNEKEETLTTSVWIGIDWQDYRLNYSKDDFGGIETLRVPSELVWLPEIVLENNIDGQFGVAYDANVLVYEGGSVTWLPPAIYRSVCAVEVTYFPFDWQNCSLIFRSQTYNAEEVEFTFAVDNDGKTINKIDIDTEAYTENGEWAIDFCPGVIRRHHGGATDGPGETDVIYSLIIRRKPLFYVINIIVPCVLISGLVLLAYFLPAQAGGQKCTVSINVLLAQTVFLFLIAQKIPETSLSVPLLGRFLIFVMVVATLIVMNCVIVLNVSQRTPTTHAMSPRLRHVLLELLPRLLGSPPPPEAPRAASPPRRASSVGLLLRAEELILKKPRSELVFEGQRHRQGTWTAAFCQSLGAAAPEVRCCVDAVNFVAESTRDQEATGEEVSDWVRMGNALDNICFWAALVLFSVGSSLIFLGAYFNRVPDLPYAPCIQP
Chain of α9α10 nAChR (P43144 26-479 limits assumed): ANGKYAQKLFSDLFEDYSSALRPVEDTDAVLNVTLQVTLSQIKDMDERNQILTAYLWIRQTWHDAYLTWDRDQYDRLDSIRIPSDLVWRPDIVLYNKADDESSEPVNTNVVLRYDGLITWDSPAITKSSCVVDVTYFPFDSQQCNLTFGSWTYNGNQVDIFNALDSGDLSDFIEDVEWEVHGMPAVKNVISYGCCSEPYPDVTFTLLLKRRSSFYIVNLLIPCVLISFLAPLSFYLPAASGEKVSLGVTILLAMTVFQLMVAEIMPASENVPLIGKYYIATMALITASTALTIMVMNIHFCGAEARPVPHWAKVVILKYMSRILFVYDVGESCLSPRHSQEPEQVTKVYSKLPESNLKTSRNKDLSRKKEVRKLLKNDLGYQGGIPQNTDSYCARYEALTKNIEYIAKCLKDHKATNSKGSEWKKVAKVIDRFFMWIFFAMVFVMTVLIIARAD
Chain of α9α10 nAChR (Q9JLB5 25-447 limits assumed): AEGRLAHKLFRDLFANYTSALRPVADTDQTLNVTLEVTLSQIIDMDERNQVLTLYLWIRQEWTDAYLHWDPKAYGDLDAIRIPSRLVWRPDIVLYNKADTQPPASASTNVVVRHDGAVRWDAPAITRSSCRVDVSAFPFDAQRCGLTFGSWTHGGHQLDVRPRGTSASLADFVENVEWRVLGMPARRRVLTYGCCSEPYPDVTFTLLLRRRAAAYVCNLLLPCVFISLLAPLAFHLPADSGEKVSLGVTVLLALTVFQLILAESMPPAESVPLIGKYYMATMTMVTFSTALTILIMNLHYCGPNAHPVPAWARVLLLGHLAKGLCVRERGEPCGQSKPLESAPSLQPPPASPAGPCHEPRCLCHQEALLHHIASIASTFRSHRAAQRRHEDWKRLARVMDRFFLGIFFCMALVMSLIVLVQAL

The Hill slope is the slope factor of the fitted curve. As usually defined, the IC50 is the concentration at which inhibition is half-maximal. Higher therefore signals a need for much substance. On α9α10 nAChR, α-conotoxin RgIA showed a Hill slope of 1.13±0.11 and an IC50 of 0.0048 µM. On α1β1δε nAChR (muscle), this substance showed a Hill slope of 0.931±0.40 and an IC50 of 16.1 µM. For the same substance, in test [1], the “increase of paw withdrawal thresholds ipsilateral to sciatic nerve ligation” value worked out at 65±17% and the “time to significant increase of PWT ipsilateral to CCI” value was in the range of 3 to 4 h.
